Measured values: patent US20080039410A1, “Inositol 1,4,5-Trisphosphate Receptor Mutants and Uses Thereof” (priority 2004, published 2008)
Entries after “also recorded” stand apart in the source; their conditions may differ.

Experiments:
Assay type in all cases: cell-based, rat
[1] = test system: S2− InsP3R-1; experiment: Flash photolysis of caged InsP3 (ci-IP3/PM), Fluo-4, Dt-40 3ko cells expressing S2− InsP3R-1 constructs
Description: Transfected cells were simultaneously loaded with the visible wavelength indicator Fluo-4 and a cell-permeable form of caged inositol trisphosphate (ci-IP3/PM) for 30 min. ci-IP3/PM is a homologue of cm-IP3/PM. The 2- and 3-hydroxyls of the inositol ring are protected by an isopropylidene group in ci-IP3/PM and are protected by a methoxymethylene group in cm-IP3/PM (45). Like cm-IP3/PM, ci- IP3/PM diffuses across cell membranes, and the PM group is hydrolyzed by cellular esterases, and Ca^2+ release can be induced upon photouncaging as i-IP3 is liberated from the cage and acts in a similar fashion to InSP3 at InsP3R^2. A further period of 30 min was allowed for de-esterification of both dye and cage. Cells were illuminated at 488±10 nm and fluorescence collected through a 525±25-nm bandpass filter and captured using the Till Photonics imaging suite. […] Photolytic release was performed as described previously by using a pulsed xenon arc lamp (Till Photonics). A high intensity (0.5-5 ms duration; 80 J) discharge of UV light (360±7.5 nm) was reflected onto the plane of focus by using a DM400 dichroic mirror and Nikon 40× oil immersion objective, 1.3 NA.
To investigate the consequences of InsP3R-1 phosphorylation, the Ca^2+ release properties of phosphomimetic mutations in the functionally important sites in both S2+ and S2− InsP3R-1 was analyzed in Dt-40 3ko cells. This cell line provides the only known InsP3R null background (42, 43). In initial experiments, a comparison was made between the sensitivity of Ca^2+ release by InsP3R-1 phosphomimetic mutations versus nonphosphorylatable alanine mutations at the sites. Dt-40 3ko cells were transfected with DNA encoding HcRed to facilitate identification of transfected cells and either S2− S1589E/S1755E InsP3R-1 (S2−EE) or S2− S1589A/S1755A (S2−AA). Ca^2+ release was monitored following flash photolysis of ci-IP3, a cell-permeable form of caged InSP3. This experimental paradigm provides a relatively direct assessment of the effects of InsP3R-1 phosphorylation on the Ca^2+ release process. […]
Target sequence in this assay (P29994 1-604 limits assumed): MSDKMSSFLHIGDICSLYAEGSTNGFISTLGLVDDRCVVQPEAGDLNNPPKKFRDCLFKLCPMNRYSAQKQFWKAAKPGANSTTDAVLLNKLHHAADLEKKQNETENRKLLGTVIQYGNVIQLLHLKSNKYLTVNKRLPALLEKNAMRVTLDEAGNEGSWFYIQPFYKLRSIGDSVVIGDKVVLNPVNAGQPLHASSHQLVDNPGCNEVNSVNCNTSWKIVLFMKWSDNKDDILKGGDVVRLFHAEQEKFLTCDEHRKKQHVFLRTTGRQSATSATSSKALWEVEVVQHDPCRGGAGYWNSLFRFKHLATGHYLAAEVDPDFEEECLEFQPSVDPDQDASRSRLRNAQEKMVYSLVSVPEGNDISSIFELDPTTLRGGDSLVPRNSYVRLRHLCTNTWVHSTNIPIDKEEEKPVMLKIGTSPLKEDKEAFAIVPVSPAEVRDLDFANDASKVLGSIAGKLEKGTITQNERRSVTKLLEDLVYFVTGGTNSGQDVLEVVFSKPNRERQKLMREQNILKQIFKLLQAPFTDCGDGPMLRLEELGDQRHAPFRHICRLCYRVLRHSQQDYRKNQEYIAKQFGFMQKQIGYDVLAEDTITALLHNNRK

[2] = test system: S2− InsP3R-1; experiment: Ca2+ oscillations after α-IgM antibody stimulation of Dt-40 3ko cells expressing S2− constructs; conditions: for Ca^2+ signal pattern: 250 ng/ml α-IgM antibody (threshold)
Excerpt: Cells transfected with WT and mutant S2− isoforms were stimulated with varying concentrations of an α-IgM antibody (Southern Biotechnology Associates, Inc., Birmingham, Ala.). Infrequent Ca^2+ oscillations were produced presumably through B cell receptor cross-linking, activation of phospholipase C-γ, and subsequent production of InsP3.
In many nonelectrically excitable cell types, the physiological mode of Ca^2+ signaling is through the generation of Ca^2+ oscillations (1, 108). Moreover, it is a generally held view that the spatial and temporal properties of Ca^2+ oscillations make an important contribution to defining the fidelity and specificity of Ca^2+ signaling. In many current models addressing the mechanism underlying Ca^2+ oscillations, a key feature is the regulation of Ca^2+ release through InsP3R. Experiments were then designed to assess the consequences of InsP3R-1 phosphorylation (expressed in isolation) on the initiation and generation of Ca^2+ oscillations. An α-IgM antibody was chosen to stimulate and to initiate Ca^2+ oscillations through activation of the endogenous B cell receptor, phospholipase C-γ activation, and the formation of InsP3. Dt-40 3ko cells expressing either S2−WT or S2−EE to mimic PKA phosphorylation of the InsP3R-1 were stimulated with various concentrations of α-IgM antibody as illustrated by the selection of representative traces in FIG. 24. […] This latter observation presumably reflects the fact that the frequency of oscillations is primarily defined by mechanisms such as Ca^2+ feedback (109) rather than the absolute sensitivity of the InsP3R-1 to InsP3 within a defined range. […] Given the almost ubiquitous expression of various forms of InsP3R-1, this is likely a generally important phenomenon. […] These include modulation of InSP3 binding, an idea supported by measurements of InsP3R binding in hepatocytes (112) (presumably S2− InsP3R-1 and InsP3R-2). In these studies the apparent affinity of InsP3 binding was enhanced ˜2-fold at resting [Ca^2+], and the [Ca^2+] necessary for half-maximal stimulation of InsP3 binding was reduced. In contrast, a study of recombinant S1−S2+InsP3R-1 expressed in SF9 cells and reconstituted into lipid bilayers has reported a similar increase in InsP3R sensitivity to InsP3 but that the bell-shaped Ca^2+ sensitivity of channel opening is not altered following phosphorylation of the InsP3R-1 (23). These findings indicate that modulation of the Ca^2+ sensitivity of channel activity is unlikely to account for the increased apparent sensitivity of the receptor, at least in this form of the InsP3R-1. There are a number of alternative mechanisms for altering InsP3R-1 sensitivity are conceivable. For example, phosphorylation of the receptor could alter the gating of the channel directly. In addition, phosphorylation might secondarily modulate the receptor by regulation of the association of regulatory factors such as proteins or adenine nucleotides (113-115).

[3] = test system: S2− InsP3R-1; experiment: Potentiation of CCh-induced Ca2+ release after PKA activation (forskolin), S2− InsP3R-1 constructs in DT-40 3ko cells; conditions: low affinity indicator Fura-2-FF

Substance | cells showing Ca^2+ release (>0.05% ΔF/F) ([1]; 0.5 ms UV discharge) | cells showing Ca^2+ release ([1]; 1.25 ms UV flash) | response to photolysis of ci-IP3 versus nonphosphorylatable mutant ([1]; UV flash 0.5-5 ms) | Ca^2+ signal pattern [2] | latency before the increase in Ca^2+ versus S2−WT ([2]; 500 ng/ml α-IgM antibody) | magnitude of the initial transient versus WT ([2]; 500 ng/ml α-IgM antibody) | latency, frequency or initial peak magnitude versus S2−WT ([2]; 1 μg/ml α-IgM antibody) | fold potentiation of CCh-induced Ca^2+ release by forskolin [3]
S2−EE: phosphomimetic S1589E/S1755E mutant of the short splice variant | ~60% | all cells | lower threshold of UV light exposure | repetitive Ca^2+ transients following a much shorter latency; also recorded: multiple Ca^2+ transients | significantly shorter | significantly larger | indistinguishable | 
S2−WT: wild-type rat type-1 InsP3 receptor, peripheral short S2− splice variant (SEQ ID NO: 17) |  |  |  | single small increase in [Ca^2+]i after a long latency; also recorded: single Ca^2+ transient after a long latency |  |  |  | ~4.5 fold
